From US7303866B2, “Methods of identifying an agent that modulates an interaction between 53BP1 and histone H3, and uses thereof” (priority 2004, dated 2007) come the findings set out here.

Where a SMILES comes first, the peptide text is derived from it. Where no end group is shown, it is not given here. [ ]: non-standard residue; d: D form. Lys(Me2) = CN(C)CCCC[C@H](N)C(=O)O; d = 2'-deoxy (DNA); r = 2'-OH (RNA) Where only a bound is given, the exact number is not on record here.

Data set [1] addresses 53BP1 tandem tudor domain (Homo sapiens, UniProt Q12888). The data set is described as follows: Isothermal titration calorimetry. It is filed as binding. Conditions: data not shown; read-out: dissociation constant.
In data set [2] the target is T1, GST-53BP1 fusion protein containing 53BP1 residues 1480-1626 (Homo sapiens, UniProt Q12888).
T1 construct: a GST-53BP1 fusion protein containing 53BP1 residues 1480-1626 to histones prepared from 293T cells
T1 sequence (Q12888 1480-1626): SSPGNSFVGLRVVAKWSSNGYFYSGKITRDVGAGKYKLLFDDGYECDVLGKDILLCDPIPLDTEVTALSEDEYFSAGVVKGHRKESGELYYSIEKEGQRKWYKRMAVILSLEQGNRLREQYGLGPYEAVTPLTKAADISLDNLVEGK
Nature of the data set: Competition of binding of GST-53BP1 to histone H3 by histone H3 peptides (pull-down, immunoblot). Particulars: 5 or 25 μg peptide; histones prepared from 293T cells; bound histone H3 detected by immunoblotting. From the text:
FIG. 3 Binding of the tandem tudor domain of 53BP1 to histone H3 methylated on Lys79. a, GST-53BP1 fusion proteins containing residues 1157-1634 or 1480-1626 of human 53BP1 or plain GST protein were examined for binding to calf thymus histones (ct) or recombinant histones H3 and H4 (r). The proteins were resolved by SDS-PAGE and stained with Coomassie Brilliant Blue. The labels for H3, H2A, H2B and H4 refer to the input histones (Inp. Hist.). b, Identification of 53BP1-bound histones as full-length and N-terminally-cleaved histone H3. Input and GST-53BP1-bound histones were stained with Coomassie Brilliant Blue (C.B.) or immunoblotted (IB) with an antibody that recognizes the C-terminus (C-ter) of histone H3. c, Enrichment for methylation of Lys79 in histone H3 bound to GST-53BP1 as compared to input histone H3. Bound full-length histone H3 (aa 1-135), bound cleaved histone H3 (aa 28-135) and full-length histone H3 from the input fraction were analyzed by tandem mass spectrometry (MS/MS). For each sample, the identified peptides that include Lys79 are shown. K, K# and K## represent non-, mono- and di-methylated lysine, respectively. TIC, total ion current (an indicator of peptide abundance); dM, absolute difference of the experimental and theoretical masses; xCorr, cross correlation value of the experimental MS/MS spectrum versus the theoretical; Ions, number of matched ions in the experimental MS/MS spectrum versus the total number of theoretically possible ions. d, Competition of binding of 53BP1 to histone H3 by methylated histone H3 peptides. Binding of a GST-53BP1 fusion protein containing 53BP1 residues 1480-1626 to histones prepared from 293T cells was performed in the presence of no competitor peptide (−) or 5 or 25 μg histone H3 peptides. Bound histone H3 was detected by immunoblotting. Peptides spanning residues 74-83 of histone H3 had either non- (nm), mono- (mm) or di-methylated (dm) Lys79 (K79); peptides spanning residues 23-34 and 23-32 of histone H3 had dimethylated Lys27 (K27) and Arg26 (R26), respectively. e, Binding of a GST fusion protein containing S. cerevisiae Rad9 residues 750-917 to histone H3. Binding was examined as in a. f, Amino acid substitutions that disrupt recruitment of 53BP1 to sites of DNA DSBs also disrupt binding to histone H3. Binding was examined as in a. g, Crosslinking of ectopically-expressed His-tagged GFP-53BP1 to endogenous histone H3 in irradiated U2OS cells. Non-transfected U2OS cells (−) or cells transfected with His-tagged GFP-53BP1 fusion proteins having wild-type (wt) or mutant (Asp1521Arg, D1521R) 53BP1 were crosslinked with formaldehyde (fr) or were mock-crosslinked (m). Triton-X100 insoluble material (TrIM) from these cells was incubated with nickel-coated beads. Histone H3 in the TrIM and nickel bead-bound (NiBB) fractions was detected by immunoblotting after the crosslinks were reversed.
Glutathione S-transferase (GST) proteins (5 μg) fused to residues 1157-1634 or 1480-1626 of human 53BP1 or 750-917 of S. cerevisiae Rad9 were bound to glutathione beads (Pharmacia). The beads were then incubated for 1 h at 4° C. with histones in buffer containing 25 mM BTP [pH 6.8], 1 M KCl, and 0.5% Triton X-100. After 6 washes the bound material was resolved on SDS-polyacrylamide gels and either stained with Coomassie Brilliant Blue or immunoblotted with an antibody that recognizes the C-terminus of histone H3 (AbCam). […]

Data set [3] deals with T2, human Dot1L (Homo sapiens, UniProt Q8TEK3).
T2 construct: U2OS cells were transfected with control siRNA (luciferase; Dharmacon) or siRNA directed against human dot1L; endogenous in cells; host or cells: U2OS osteosarcoma cells
T2 sequence (Q8TEK3 whole entry): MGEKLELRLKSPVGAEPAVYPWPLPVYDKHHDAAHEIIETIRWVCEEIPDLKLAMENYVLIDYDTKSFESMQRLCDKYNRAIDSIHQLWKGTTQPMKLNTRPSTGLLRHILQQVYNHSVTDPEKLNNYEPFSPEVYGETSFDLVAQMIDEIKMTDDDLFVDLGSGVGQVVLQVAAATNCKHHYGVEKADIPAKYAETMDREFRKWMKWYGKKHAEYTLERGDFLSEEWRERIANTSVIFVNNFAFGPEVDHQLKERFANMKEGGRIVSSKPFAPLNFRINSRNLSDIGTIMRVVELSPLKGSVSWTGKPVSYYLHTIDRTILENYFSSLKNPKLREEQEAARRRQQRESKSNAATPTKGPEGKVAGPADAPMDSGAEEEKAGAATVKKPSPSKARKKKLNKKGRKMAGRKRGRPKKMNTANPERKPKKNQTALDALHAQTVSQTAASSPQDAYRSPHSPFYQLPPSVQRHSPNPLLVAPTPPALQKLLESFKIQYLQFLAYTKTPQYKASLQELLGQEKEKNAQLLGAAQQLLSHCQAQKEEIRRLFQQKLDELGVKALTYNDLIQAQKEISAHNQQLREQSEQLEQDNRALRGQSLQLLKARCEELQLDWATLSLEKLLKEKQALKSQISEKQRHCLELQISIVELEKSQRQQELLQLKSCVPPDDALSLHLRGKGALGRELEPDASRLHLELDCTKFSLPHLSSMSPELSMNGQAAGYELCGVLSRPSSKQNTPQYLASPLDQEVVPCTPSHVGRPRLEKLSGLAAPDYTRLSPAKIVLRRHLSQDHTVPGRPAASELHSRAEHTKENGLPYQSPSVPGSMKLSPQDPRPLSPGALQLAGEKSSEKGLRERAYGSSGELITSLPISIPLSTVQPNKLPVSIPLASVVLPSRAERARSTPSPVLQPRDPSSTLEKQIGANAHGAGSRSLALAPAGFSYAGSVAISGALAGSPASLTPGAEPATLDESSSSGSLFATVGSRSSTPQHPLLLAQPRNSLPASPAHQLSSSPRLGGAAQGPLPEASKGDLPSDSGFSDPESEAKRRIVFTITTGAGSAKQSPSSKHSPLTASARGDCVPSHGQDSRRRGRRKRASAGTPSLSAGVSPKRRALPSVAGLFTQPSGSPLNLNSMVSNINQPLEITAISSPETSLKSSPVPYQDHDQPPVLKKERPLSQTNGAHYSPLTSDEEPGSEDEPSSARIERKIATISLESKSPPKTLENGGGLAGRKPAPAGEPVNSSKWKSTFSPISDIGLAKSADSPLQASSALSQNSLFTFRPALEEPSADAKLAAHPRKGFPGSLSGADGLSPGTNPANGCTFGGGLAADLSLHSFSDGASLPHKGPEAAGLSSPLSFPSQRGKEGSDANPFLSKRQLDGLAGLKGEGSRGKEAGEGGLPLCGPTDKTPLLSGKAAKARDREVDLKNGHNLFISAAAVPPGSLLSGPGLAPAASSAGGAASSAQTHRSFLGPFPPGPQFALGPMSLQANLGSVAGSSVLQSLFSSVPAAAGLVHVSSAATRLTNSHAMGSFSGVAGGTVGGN
Nature of the data set: Suppression of histone H3 methylation on Lys79 by siRNA (immunoblot). Type of data set: cell-based. Conditions: U2OS cells, dot1L siRNA transfection (up to 3 rounds). (Immunoblotting shows a protein as a band on a membrane.)

Data set [4] has as its system U2OS cells. Nature of the data set: 53BP1 IR-induced foci in irradiated U2OS cells after siRNA (immunofluorescence). Type of data set: cell-based, human. Conditions: 9 Gy IR, 15 min later. As for the experimental part: FIG. 4 Histone H3 methylated on Lys79 and changes in higher order chromatin structure recruit 53BP1 to sites of DNA DSBs and chromatin. a, Suppression of histone H3 methylation on Lys79 inhibits recruitment of 53BP1 to sites of DNA DSBs. The percentage of irradiated (9 Gy) U2OS cells without (w/o) 53BP1 foci was determined from 4 independent experiments of control (ctl) siRNA-treated cells or cells transfected once (1) or 3 consecutive times (3) with dot1L-specific siRNA. Bars indicate standard errors. […] Histones prepared from non-irradiated or irradiated (9 Gy) 293T cells were resolved by SDS-PAGE and stained with Coomassie Brilliant Blue (C.B.; top panel) or immunoblotted with antibodies that recognize the C-terminus (C-ter) of histone H3, histone H3 dimethylated on Lys79 (K79dm), histone H2AX and phosphorylated histone H2AX (γ-H2AX; middle panel). […] Bound histone H3 was detected by immunoblotting (IB; lower panel). c, Exposure of cells to hypotonic media slows the nuclear diffusion of 53BP1. […] To show differences in GFP-53BP1 fluorescence before and after bleaching, the post-bleach image was pseudocolored magenta and merged with the pre-bleach image (Diff. image). […]
3 days after the last siRNA transfection, the cells were exposed to 9 Gy IR and 53BP1 intracellular localization was monitored by immunofluorescence 15 min later^5.

53BP1 tandem tudor domain, sequence (Q12888 1484-1603 limits assumed): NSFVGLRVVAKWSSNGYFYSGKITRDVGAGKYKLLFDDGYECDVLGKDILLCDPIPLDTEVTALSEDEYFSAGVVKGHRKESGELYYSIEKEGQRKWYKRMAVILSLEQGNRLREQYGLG

With `CC[C@H](C)[C@H](N)C(=O)N[C@@H](C)C(=O)N[C@@H](CCC(N)=O)C(=O)N[C@@H](CC(=O)O)C(=O)N[C@@H](Cc1ccccc1)C(=O)N[C@@H](CCCCN(C)C)C(=O)N[C@H](C(=O)N[C@@H](CC(=O)O)C(=O)N[C@@H](CC(C)C)C(=O)N[C@@H](CCCNC(=N)N)C(=O)O)[C@@H](C)O` (H-IAQDF[Lys(Me2)]TDLR-OH; N-terminus and C-terminus assumed), the Kd in data set [1] is less than 1 µM. The “competition for binding of histone H3 to 53BP1” value (“competition for binding” for short) in data set [2] was “competed for binding of histone H3 to 53BP1”.

With “GCUCGCUAUGGAGAAUUACdTdT (guide GCUCGCUAUGGAGAAUUACTT; siRNA; sugars from the 5' end r19 d2, backbone not given here) [siRNA specific for human Dot1L, siRNA directed against human dot1L]”, the “methylation of histone H3 on Lys79” value in data set [3] was “suppressed”. For the same compound, the “recruitment of 53BP1 to sites of DNA DSBs” value in data set [4] is “suppressed”.

Turning to “corresponding non-methylated peptide: peptide spanning residues 74-83 of histone H3 with non-methylated Lys79 (IAQDFKTDLR)”, the “competition for binding” value in data set [2] is on record as “did not compete”.

Consider “monomethylated Lys79 peptide: peptide spanning residues 74-83 of histone H3 with mono-methylated Lys79 (IAQDFK(Me)TDLR)”, for which the “competition for binding” value in data set [2] is on record as “competed with lower efficiency”.

As for “peptide with dimethylated Arg26: peptide spanning residues 23-32 of histone H3 with dimethylated Arg26 (KAARKSAPAT; dimethylated Arg26; UniProt P68431 24-33, looked up, fragment)”, the “competition for binding” value in data set [2] was “competed with lower efficiency”.

For the compound “peptide with dimethylated Lys27: peptide spanning residues 23-34 of histone H3 with dimethylated Lys27 (KAARKSAPATGG; Lys27 dimethylated; UniProt P68431 24-35, looked up, fragment)”, the “competition for binding” value in data set [2] was “competed with lower efficiency”.
